Measurements as given in US20050074408A1, “Keto cannabinoids with therapeutic indications” (University of Connecticut, priority 2002, published 2005).
Where two headings read alike, the source gives them in different places.

Legend:
CB1 cannabinoid receptor = target: T1, CB1 cannabinoid receptor (Rattus norvegicus, UniProt P20272); assay: CB1 receptor binding assay ([3H] CP-55,940 displacement, rat forebrain membranes); settings: 0.8 nM [3H] CP-55,940
T1 construct: membranes were prepared from rat forebrain membranes; from tissue; host or cells: rat forebrain
T1 sequence (P20272 whole entry): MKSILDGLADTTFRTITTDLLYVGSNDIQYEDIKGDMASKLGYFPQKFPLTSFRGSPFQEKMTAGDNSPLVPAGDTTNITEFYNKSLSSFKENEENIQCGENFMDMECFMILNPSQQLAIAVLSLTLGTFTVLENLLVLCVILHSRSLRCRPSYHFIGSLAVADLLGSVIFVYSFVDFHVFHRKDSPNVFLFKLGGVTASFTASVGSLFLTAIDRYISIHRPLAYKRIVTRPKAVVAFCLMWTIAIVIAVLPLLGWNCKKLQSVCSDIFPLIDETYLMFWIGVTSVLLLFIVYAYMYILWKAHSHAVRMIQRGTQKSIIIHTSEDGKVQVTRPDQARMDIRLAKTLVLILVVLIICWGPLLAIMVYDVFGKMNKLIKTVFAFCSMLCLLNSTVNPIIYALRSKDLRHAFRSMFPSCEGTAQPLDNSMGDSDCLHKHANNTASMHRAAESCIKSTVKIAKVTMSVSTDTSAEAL
Method: Some of the inventive compounds were tested for CB2 receptor binding affinity and for CB1 receptor affinity (to determine selectivity for the CB2 receptor). As used herein, “binding affinity” is represented by the Ki value which is the inhibition constant correlated with the concentration of an analog required to occupy the 50% of the total number (Bmax) of the receptors. The lower the Ki value the higher the binding affinity. […] For the CB1 receptor binding studies, membranes were prepared from rat forebrain membranes according to the procedure of P. R. Dodd et al, A Rapid Method for Preparing Synaptosomes: Comparison with Alternative Procedures, Brain Res., 107-118 (1981). The binding of the novel analogues to the CB1 cannabinoid receptor was assessed as described in W. A. Devane et al, Determination and Characterization of a Cannabinoid Receptor in a Rat Brain, Mol. Pharmacol., 34, 605-613 (1988) and A. Charalambous et al, 5′-azido Δ^8−THC: A Novel Photoaffinity Label for the Cannabinoid Receptor, J. Med. Chem., 35, 3076-3079 (1992) with the following changes. The above articles are incorporated by reference herein.
(§1) Membranes, previously frozen at −80° C., were thawed on ice. To the stirred suspension was added three volumes of TME (25 mM Tris-HCl buffer, 5 mM MgCl2 and 1 mM EDTA) at a pH 7.4. The suspension was incubated at 4° C. for 30 min. At the end of the incubation, the membranes were pelleted and washed three times with TME.
The treated membranes were subsequently used in the binding assay described below. Approximately 30 μg of membranes were incubated in silanized 96-well microtiter plate with TME containing 0.1% essentially fatty acid-free bovine serum albumin (BSA), 0.8 nM [^3H] CP-55,940, and various concentrations of test materials in a final volume of 200 μL. The assays were incubated for 1 hour at 30° C. and then immediately filtered using Packard Filtermate 196 harvester and Whatman GF/C filterplates and washed with wash buffer (TME) containing 0.5% BSA. Radioactivity was detected using MicroScint 20 scintillation cocktail added directly to the dried filterplates, and the filterplates were counted using a Packard Instruments Top-Count. Nonspecific binding was assessed using 100 nM CP-55,940. Data collected from three independent experiments performed with duplicate determinations was normalized between 100% and 0% specific binding for [^3H] CP-55,940, determined using buffer and 100 nM CP-55,940. The normalized data was analyzed using a 4-parameter nonlinear logistic equation to yield IC50 values. Data from at least two independent experiments performed in duplicate was used to calculate IC50 values which were converted to Ki values using the assumptions of Cheng et al, Relationship Between the Inhibition Constant (Ki) and the concentration of Inhibitor which causes 50% Inhibition (IC50) of an Enzymatic Reaction, Biochem. Pharmacol., 22, 3099-3102, (1973), which is incorporated by reference herein.

CB2 receptor = target: T2, CB2 receptor (Mus musculus, UniProt P47936); assay: CB2 receptor binding assay ([3H] CP-55,940 displacement, mouse spleen membranes)
T2 construct: membranes were prepared from frozen mouse spleen; from tissue; host or cells: mouse spleen
T2 sequence (P47936 whole entry): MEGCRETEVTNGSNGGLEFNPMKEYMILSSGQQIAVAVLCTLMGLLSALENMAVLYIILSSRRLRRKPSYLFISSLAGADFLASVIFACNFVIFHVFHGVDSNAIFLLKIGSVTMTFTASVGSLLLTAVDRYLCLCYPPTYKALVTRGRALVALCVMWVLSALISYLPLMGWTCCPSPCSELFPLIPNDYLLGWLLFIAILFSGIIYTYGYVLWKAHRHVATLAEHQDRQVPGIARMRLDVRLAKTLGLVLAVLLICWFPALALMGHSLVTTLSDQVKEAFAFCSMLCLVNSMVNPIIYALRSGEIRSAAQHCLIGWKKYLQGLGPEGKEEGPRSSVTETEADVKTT
Method: as §1
The treated membranes were subsequently used in the binding assay described below. Approximately 30 μg of membranes were incubated in silanized 96-well microtiter plate with TME containing 0.1% essentially fatty acid-free bovine serum albumin (BSA), 0.8 nM [^3H] […] Radioactivity was detected using MicroScint 20 scintillation cocktail added directly to the dried filterplates, and the filterplates were counted using a Packard Instruments Top-Count. […] Data collected from three independent experiments performed with duplicate determinations was normalized between 100% and 0% specific binding for [^3H] […] The normalized data was analyzed using a 4-parameter nonlinear logistic equation to yield IC50 values.
Silanized centrifuge tubes were used throughout to minimize receptor loss due to adsorption. The CB2 binding assay was conducted in the same manner as for the CB1 binding assay. The binding affinities (Ki) were also expressed in nanomoles (nM).

[1] = Fluorescence assay protocol (absorption, excitation and emission scans in MeOH); format: physicochemical
Method: The fluorescent properties of some of the inventive compounds were examined using the following fluorescence assay protocol. All samples were processed in the same manner and diluted in JT BAKER PHOTREX Grade MeOH. Cuvettes and flasks were cleaned and rinsed with distilled water then rinsed twice with MeOH. Samples were kept in the freezer prior to testing. NSG Precision Quartz Cuvettes were used for absorption and spectral scans. Samples were diluted with methanol to a final volume of 5 mL. A 100× dilution of the samples in MeOH was performed. Absorption spectra were run using a Beckman DU-40 Spectrophotometer. Guided by absorption spectra, excitation and emission scans were run using an ISA Fluoromax-2 Fluorometer.
500 μL of MeOH was added into sample vial containing about 1 mg of testing compound, and aspirated with pipette to mix. 500 μL sample aliquot was then placed into 5 mL volumetric flask and brought up to volume with MeOH, and 5 mL was used as stock. Serial dilutions in 50 mL volumetric flasks were performed until final concentration of 100× reached. Dilution protocol was repeated for each sample. After dilution, 2.5 mL of sample was placed into a 3 mL Quartz cuvette and the cuvette was placed in ISA Fluoromax-2 Fluorometer. Absorption scan was run in Beckman DU-40 Spectrophotometer. Excitation and emission scans were run and spectral data were collected.

[2] = mouse spleen membranes, [3H] CP-55,940, read-out: CB2 Ki

SMILES	Ki (CB1 cannabinoid receptor) [nM]	Ki (CB2 receptor; [2]) [nM]	Absorbance Peak [1] [nm]	Fluorescence Emission Peak [1] [nm]	Fluorescence Excitation Peak [1] [nm]	Mol Extinction [1] [mol⁻¹ cm⁻¹ L⁻¹]	Stoke's Shift [1] [nm]	Ki (CB2 receptor) [nM]
CCCCCCc1cc2c3c(c(=O)oc2cc1O)CCC(C)C3 (centres unmarked) [Compound 1]	8610	5630						
CCCCCC(C)Oc1cc(O)c2c3c(c(=O)oc2c1)CCC(C)C3 (centres unmarked) [Compound 2]	150	25	320	423	326	13900	97	
CCCCCCC(C)Oc1cc(O)c2c3c(c(=O)oc2c1)CCC(C)C3 (centres unmarked) [Compound 3]	30	6						
CCCCCCN(C)c1cc(O)c2c3c(c(=O)oc2c1)CCC(C)C3 (centres unmarked) [Compound 5]	2000	1660	364	460	368	18600	92	
CCCCCCCN(C)c1cc(O)c2c3c(c(=O)oc2c1)CCC(C)C3 (centres unmarked) [Compound 6]	122	128	364	460	367	18000	93	
CCCCCCN(C)c1cc(O)cc2oc(=O)c3c(c12)CC(C)CC3 (centres unmarked) [Compound 7]	160	288						
CCCCCCCN(C)c1cc(O)cc2oc(=O)c3c(c12)CC(C)CC3 (centres unmarked) [Compound 8]	2580							824
CCCCCCCN(C)c1cc2oc(=O)c3ccc(C)cc3c2c(O)c1Br [Compound 9]	50	3						
CCCCCCCN(C)c1cc(O)c2c(oc(=O)c3ccc(C)cc32)c1Br [Compound 10]	9	0.7						
CCCCCCCN(C)c1cc(O)c2c(c1)oc(=O)c1ccc(C(F)(F)F)cc12 [Compound 11]	6680	1680						
CCCCCCCN(C)c1cc(OC)c2c(c1)oc(=O)c1ccc(C(F)(F)F)cc12 [Compound 12]	6360	1480						
CCCCCCCN(C)c1cc(O)c2c(c1)oc(=O)c1ccc(C)cc12 [Compound 13]	140	16	316	519	319	22700	200	
CCCCCCCN(C)c1cc(OC)c2c(c1)oc(=O)c1ccc(C)cc12 [Compound 14]	1260	90	405	465	405	11400	60	
CCCCCCCN(C)c1cc(O)c2c(c1)oc(=O)c1ccc(O)cc12 [Compound 15]	990	23	318	502	320	23400	182	
CCCCCCCN(C)c1cc(O)c2c(c1)oc(=O)c1ccc(OC)cc12 [Compound 16]	1300		317	498	321	21800	177	148
CCCCCCC(C)Oc1cc(O)c2c3c(c(=O)oc2c1)CCC(=O)C3 (centres unmarked) [Compound 17]	304							0.4
CCCCCCC(C)Oc1cc(OC)c2c3c(c(=O)oc2c1)CCC(=O)C3 (centres unmarked) [Compound 18]	8430	355						
CCCCCCCC(C)(C)c1cc(OC)c2c3c(c(=O)oc2c1)CCC(=O)C3 [Compound 19]	40	1						
CCCCCCC(C)Oc1cc(OC(=O)CCCCN2CCOCC2)c2c3c(c(=O)oc2c1)CCC(=O)C3 (centres unmarked) [Compound 20]	6	0.6						
CCCCCCCC(C)(C)c1cc(OC)c2c3c(c(=O)oc2c1)CCC(C)C3 (centres unmarked) [Compound 32]			327	390	330		60	
CCCCCCC(C)(C)c1cc(O)c2c(c1)oc(=O)c1ccccc12 [Compound 47]	4790	6.6						
CCCCCCC(C)(C)c1cc(O)c2c(c1)oc(=O)c1cc(O)c(O)cc12 [Compound 48]	1950	101						
CCCCCCC(C)(C)c1cc(OC)c2c(c1)oc(=O)c1ccncc12 [Compound 49]	3760	35.4						
